Assay results reported in patent publication US20230203029A1 (priority 2020, published 2023).

Experiments:
[1] = target: T1, human MERTK cytoplasmic domain (Homo sapiens, UniProt Q12866); test: biochemical; details: 30 uM ATP; read-out: Assay 1a Mer IC50 30 uM ATP
T1 construct: human MERTK cytoplasmic domain (Carna Biosciences 08-108); purchased Carna Biosciences 08-108
Description: Assay 1a—MERTK HTRF KinEASE-TK Assay
The enzymatic reaction was carried out for 30 min at room temperature. 10 μL TK Antibody-Cryptate/Streptavidin-XL665 (Cisbio 610SAXLG) was then added for 60 min, including EDTA containing detection buffer (Cisbio 62SDBRDF) to stop the reaction.

[2] = target: T2, Ba/F3 Pro B-cell line expressing TEL-human MERTK fusion domain (Homo sapiens, UniProt Q12866); format: cell-based; details: cell survival, 48 h, CellTiter-Glo; read-out: TEL-MERTK Ba/F3 IC50
T2 sequence (Q12866 587-858 limits assumed): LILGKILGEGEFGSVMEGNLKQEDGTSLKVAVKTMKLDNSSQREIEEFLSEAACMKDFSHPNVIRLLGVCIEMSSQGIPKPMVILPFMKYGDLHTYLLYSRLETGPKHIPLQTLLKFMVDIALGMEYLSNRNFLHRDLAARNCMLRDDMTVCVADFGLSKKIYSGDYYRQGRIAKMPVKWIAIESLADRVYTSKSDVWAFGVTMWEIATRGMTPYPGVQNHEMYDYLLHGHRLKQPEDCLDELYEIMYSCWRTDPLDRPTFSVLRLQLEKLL
Description: (§1) Assay 5—Ba/F3 Cell Survival Assays.
(§2) The inhibitory potencies of compounds were assessed in a Ba/F3 cell survival assay, using the Ba/F3 Pro B-cell line, recombinantly expressing a BCR-human AXL kinase domain fusion protein (pACD320/AXL, Advanced Cellular Dynamics Inc), TEL-human MERTK fusion domain (pACD1000/MERTK, Advanced Cellular Dynamics Inc), TEL-human Tyro3 fusion domain (pACD1000/TYRO3, Advanced Cellular Dynamics Inc), or control TEL-none (ACD320, Advanced Cellular Dynamics Inc) BRC-none constructs (ACD1000, Advanced Cellular Dynamics Inc). 10 ng/mL recombinant murine IL3 (R&D, 403-ML-010) was included in the media when propagating negative control TEL-none or BCR-none lines only. […] The final assay DMSO concentration was 0.25%. Compound incubations were conducted for 48 h at 37° C./5% CO2, after which cell plate was equilibrated at room temperature for 20 minutes prior to assessing viability. 15 μl of Promega CellTiter-Glo reagent (G7572) was added to each well for 2 min on an orbital shaker to induce cell lysis.
The plate was then equilibrated for 5 min at room temperature and luminescence read on a BMG Pherastar FSX using the LUM plus optic module. […] Competition curves were then fit to a 4 parameter logistic equation including a variable slope factor to determine the IC50 (compound concentration causing a half-maximal inhibition of cell survival).

[3] = target: T3, Ba/F3 Pro B-cell line expressing TEL-human Tyro3 fusion domain (Homo sapiens, UniProt Q06418); format: cell-based; details: cell survival, 48 h, CellTiter-Glo
T3 sequence (Q06418 518-790 limits assumed): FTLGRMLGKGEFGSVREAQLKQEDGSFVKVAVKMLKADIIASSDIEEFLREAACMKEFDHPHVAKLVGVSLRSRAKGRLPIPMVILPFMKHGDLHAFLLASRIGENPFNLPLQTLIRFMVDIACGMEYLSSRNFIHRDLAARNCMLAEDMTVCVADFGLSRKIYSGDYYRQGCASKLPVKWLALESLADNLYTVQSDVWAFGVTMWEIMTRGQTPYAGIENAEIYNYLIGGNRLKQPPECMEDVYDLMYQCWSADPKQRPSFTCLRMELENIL
Description: as §1
as §2, with “only. Cells were maintained in RMPI 1640 (Corning 15-040-CV) culture media containing 10% heat inactivated semi-synthetic FBS (RMBIO FGR-BBT), 2 mM L-Glutamine (Sigma, G7513), 100 IU/mL Penicillin-[…] Streptomycin (Sigma, P4333), and 500 ng/mL Puromycin (Sigma, P8833). Experiments were performed in 50 μl growth media, including the test compounds of interest, and dispensing 5000 cells/well in logarithmic-phase growth into a 384 well white Optiplate (Perkin Elmer 6007299).” for “only.”
The plate was then equilibrated for 5 min at room temperature and luminescence read on a BMG Pherastar FSX using the LUM plus optic module. Data were normalised to measurements in the absence of competing compound (0% inhibition). Competition curves were then fit to a 4 parameter logistic equation including a variable slope factor to determine the IC50 (compound concentration causing a half-maximal inhibition of cell survival).

[4] = target: T4, human AXL cytoplasmic domain (Homo sapiens, UniProt P30530); test: Assay 1b AXL HTRF KinEASE-TK assay; format: biochemical
T4 construct: human AXL cytoplasmic domain (Thermo Fisher A31515); purchased Thermo Fisher A31515
T4 sequence (P30530 473-894 limits assumed): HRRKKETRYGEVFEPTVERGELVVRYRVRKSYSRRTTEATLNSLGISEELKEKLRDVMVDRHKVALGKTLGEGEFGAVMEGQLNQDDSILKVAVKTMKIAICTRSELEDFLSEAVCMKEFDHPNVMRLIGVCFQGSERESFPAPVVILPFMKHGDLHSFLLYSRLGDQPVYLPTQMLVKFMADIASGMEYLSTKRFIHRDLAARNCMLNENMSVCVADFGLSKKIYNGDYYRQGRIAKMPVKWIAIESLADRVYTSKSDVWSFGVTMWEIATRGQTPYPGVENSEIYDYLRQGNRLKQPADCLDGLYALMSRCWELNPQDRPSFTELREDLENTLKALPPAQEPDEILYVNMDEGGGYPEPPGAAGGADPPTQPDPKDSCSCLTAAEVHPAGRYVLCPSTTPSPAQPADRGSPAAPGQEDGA
Description: Assay 1b—AXL HTRF KinEASE-TK Assay
Compound inhibition of human AXL cytoplasmic domain (Thermo Fisher A31515) enzymatic activity was tested via the HTRF KinEASE-tyrosine kinase (TK) kit (Cisbio 62TK0PEC). Experiments were performed in 20 μl enzymatic buffer (Cisbio 62EZBFDD) supplemented with 5 mM MgCl2, 1 mM MnCl2, 1 mM DTT, 50 nM SEB (Cisbio, 61SEBALB), with 5 nM of AXL and the test compounds of interest. […] The enzymatic reaction was carried out for 30 min at room temperature. 10 μL TK Antibody-Cryptate/Streptavidin-XL665 (Cisbio 610SAXLG) was then added for 60 min, including EDTA containing detection buffer (Cisbio 62SDBRDF) to stop the reaction. The plate was read on a BMG Pherastar FSX using a HTRF 337/620/665 optical module to excite the terbium donor at 337 nm, and record donor emission at 620 nm and acceptor fluorophore emission at 665 nm. From this the FRET ratio (acceptor 665 nm/donor 620 nm) for each data point was calculated. […] Competition curves were then fit to a 4 parameter logistic equation including a variable slope factor to determine the IC50 (compound concentration that inhibits 50% of AXL activity).

T1 sequence (Q12866 527-999): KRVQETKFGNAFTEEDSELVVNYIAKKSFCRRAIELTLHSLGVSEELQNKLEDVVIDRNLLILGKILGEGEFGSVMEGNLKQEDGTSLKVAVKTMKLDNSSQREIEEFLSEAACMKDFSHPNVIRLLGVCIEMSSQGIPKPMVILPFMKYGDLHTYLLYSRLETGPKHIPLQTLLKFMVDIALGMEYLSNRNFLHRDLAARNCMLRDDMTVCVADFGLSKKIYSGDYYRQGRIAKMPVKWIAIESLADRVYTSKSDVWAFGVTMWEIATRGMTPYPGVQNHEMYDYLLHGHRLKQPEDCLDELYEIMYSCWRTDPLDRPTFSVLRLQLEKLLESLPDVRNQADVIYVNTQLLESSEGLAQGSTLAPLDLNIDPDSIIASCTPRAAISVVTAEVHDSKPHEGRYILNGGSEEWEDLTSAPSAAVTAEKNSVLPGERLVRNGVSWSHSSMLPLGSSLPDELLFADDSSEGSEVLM

Compound	IC50 [1] [nM]	IC50 [4] [nM]	IC50 [2] [nM]	IC50 [3] [nM]
O=C(Nc1ccc(Nc2ccnc3cnc(C(=O)N4CCC4)cc23)cc1)c1cccn(-c2ccccc2)c1=O [Example 5.4, N-[4-[[6-(azetidine-1-carbonyl)-1,7-naphthyridin-4-yl]amino]phenyl]-2-oxo-1-phenyl-pyridine-3-carboxamide]	535			
CN1CCC(NC(=O)c2cc3c(Oc4cnc(NC(=O)c5cccn(-c6ccc(F)cc6)c5=O)nc4)ccnc3cn2)CC1 [Example 19, 4-[2-[[1-(4-Fluorophenyl)-2-oxo-pyridine-3-carbonyl]amino]pyrimidin-5-yl]oxy-N-(1-methyl-4-piperidyl)-1,7-naphthyridine-6-carboxamide]	137			
Cc1c(C(=O)Nc2ccc(Oc3ccnc4cnc(C(=O)NC5CCN(C)CC5)cc34)cc2)c(=O)n(-c2ccccc2)n1CC(C)(C)O [Example 8.4, 4-[4-[[1-(2-hydroxy-2-methyl-propyl)-5-methyl-3-oxo-2-phenyl-pyrazole-4-carbonyl]amino]phenoxy]-N-(1-methyl-4-piperidyl)-1,7-naphthyridine-6-carboxamide]	245			
Cc1c(C(=O)Nc2ccc(Oc3ccnc4cnc(N5CCNCC5)cc34)cc2)c(=O)n(-c2ccccc2)n1C [Example 12.8, 1,5-dimethyl-3-oxo-2-phenyl-N-[4-[(6-piperazin-1-yl-1,7-naphthyridin-4-yl)oxy]phenyl]pyrazole-4-carboxamide]	134			
CC(C)n1cc(C(=O)Nc2ccc(Nc3ccnc4cnc(C(=O)NOCCO)cc34)cc2)c(=O)n(-c2ccc(F)cc2)c1=O [Example 7, 4-[4-[[3-(4-fluorophenyl)-1-isopropyl-2,4-dioxo-pyrimidine-5-carbonyl]amino]anilino]-N-(2-hydroxyethoxy)-1,7-naphthyridine-6-carboxamide]	392			
O=C(Nc1ccc(Oc2ccnc3cnc(N4CCNCC4)cc23)cc1)c1cccn(-c2ccccn2)c1=O [Example 12.1, 2-oxo-N-[4-[(6-piperazin-1-yl-1,7-naphthyridin-4-yl)oxy]phenyl]-1-(2-pyridyl)pyridine-3-carboxamide]	722			
CN1CCC(NC(=O)c2cc3c(Oc4ccc(NC(=O)c5cccn(-c6ccccn6)c5=O)cc4)ccnc3cn2)CC1 [Example 8, N-(1-methyl-4-piperidyl)-4-[4-[[2-oxo-1-(2-pyridyl)pyridine-3-carbonyl]amino]phenoxy]-1,7-naphthyridine-6-carboxamide]	154			

Continued by falling IC50 [1], values first:

IC50 [1] [nM]	IC50 [4] [nM]	Compound	IC50 [2] [nM]	IC50 [3] [nM]
133		Cc1c(C(=O)Nc2ccc(Oc3ccnc4cnc(C(=O)NC5CCN(C)CC5)cc34)cc2)c(=O)n(-c2ccccc2)n1C [Example 8.3, 4-[4-[(1,5-Dimethyl-3-oxo-2-phenyl-pyrazole-4-carbonyl)amino]phenoxy]-N-(1-methyl-4-piperidyl)-1,7-naphthyridine-6-carboxamide]		
54		CC(C)n1cc(C(=O)Nc2ccc(Nc3ccnc4cnc(C(=O)NCCN(C)C)cc34)cc2)c(=O)n(-c2ccc(F)cc2)c1=O [Example 7.1, N-[2-(dimethylamino)ethyl]-4-[4-[[3-(4-fluorophenyl)-1-isopropyl-2,4-dioxo-pyrimidine-5-carbonyl]amino]anilino]-1,7-naphthyridine-6-carboxamide]		
16	36	O=C(Nc1ccc(Oc2ccnc3cnc(N4CCNCC4)cc23)cc1)c1c[nH]cc(-c2ccc(F)cc2)c1=O [Example 12.7, 5-(4-fluorophenyl)-4-oxo-N-[4-[(6-piperazin-1-yl-1,7-naphthyridin-4-yl)oxy]phenyl]-1H-pyridine-3-carboxamide]		
13		CC(C)n1cc(C(=O)Nc2ccc(Oc3ccnc4cnc(C5CCN(C)CC5)cc34)cn2)c(=O)n(-c2ccc(F)cc2)c1=O [Example 23.1, 3-(4-fluorophenyl)-1-isopropyl-N-[5-[[6-(1-methyl-4-piperidyl)-1,7-naphthyridin-4-yl]oxy]-2-pyridyl]-2,4-dioxo-pyrimidine-5-carboxamide]	15	568
2	34	CN1CCC(C(=O)Nc2cc3c(Oc4ccc(NC(=O)c5cccn(-c6ccc(F)cc6)c5=O)nc4)ccnc3cn2)C1 (stereo not shown) [Example 18, 1-(4-Fluorophenyl)-N-[5-[[6-[(1-methylpyrrolidine-3-carbonyl)amino]-1,7-naphthyridin-4-yl]oxy]-2-pyridyl]-2-oxo-pyridine-3-carboxamide]	3	165
1	3	O=C(Nc1ccc(Oc2ccnc3cnc(C4CCN(C5COC5)CC4)cc23)cn1)c1cccn(-c2ccc(F)cc2)c1=O [Example 16.3, 1-(4-fluorophenyl)-N-[5-[[6-[1-(oxetan-3-yl)-4-piperidyl]-1,7-naphthyridin-4-yl]oxy]-2-pyridyl]-2-oxo-pyridine-3-carboxamide]	14	271
